The source of these data is publication PMC5762728 (Scientific Reports, 2018).

Data set [1] concerns N-domain of ACE. The conditions noted are these: cited from earlier work.
Data set [2] relates to N-domain of ACE. The conditions noted are these: cited from earlier work. The source holds these as a separate data set.
The target in data set [3] is T1, C-domain of bovine ACE (C-ACE) (Bos taurus, UniProt P12820).
T1 sequence (P12820 643-1222 limits assumed): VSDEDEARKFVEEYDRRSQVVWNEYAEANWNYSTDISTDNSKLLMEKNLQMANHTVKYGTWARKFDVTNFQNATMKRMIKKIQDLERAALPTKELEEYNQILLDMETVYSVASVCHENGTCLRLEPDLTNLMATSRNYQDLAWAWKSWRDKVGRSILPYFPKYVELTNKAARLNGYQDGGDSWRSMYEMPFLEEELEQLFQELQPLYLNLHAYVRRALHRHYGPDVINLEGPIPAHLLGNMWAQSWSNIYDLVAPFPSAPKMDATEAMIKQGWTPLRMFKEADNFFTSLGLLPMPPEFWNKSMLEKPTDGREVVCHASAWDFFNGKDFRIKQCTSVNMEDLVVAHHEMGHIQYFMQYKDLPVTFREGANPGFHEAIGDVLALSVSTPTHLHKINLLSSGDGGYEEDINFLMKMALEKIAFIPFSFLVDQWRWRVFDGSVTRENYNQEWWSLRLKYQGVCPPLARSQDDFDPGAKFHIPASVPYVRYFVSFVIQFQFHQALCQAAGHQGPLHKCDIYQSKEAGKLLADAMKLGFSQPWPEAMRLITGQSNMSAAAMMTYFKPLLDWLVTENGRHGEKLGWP
Kind of data set: Inhibition of C-ACE hydrolysis of Aβ peptides by lisinopril. The format is biochemical. To be noted: lisinopril 10 μM; MALDI-TOF MS.

In data set [4] the test system is N-domain of ACE (N-ACE). The data set can be described thus: N-ACE with lisinopril. The conditions noted are these: bovine, 37 °C.
For data set [5], the system named is N-domain of ACE (N-ACE). The data set can be described thus: N-ACE with lisinopril, ratAβ substrate. The conditions noted are these: bovine, 37 °C, up to 60 min.
For data set [6], the system named is N-ACE (N-domain of bovine ACE). The conditions noted are these: 37 °C, up to 60 min.
For another data set, the system named is C-domain of ACE (C-ACE). Kind of data set: C-ACE with lisinopril, ratAβ substrate. The conditions noted are these: bovine, 37 °C, up to 60 min.
Data set [7] concerns the target T1, C-domain of bovine ACE (C-ACE). The data set can be described thus: Hydrolysis of Aβ metal-binding-domain peptides by C-ACE, products identified/quantified by MALDI-TOF MS. The conditions noted are these: same experimental conditions as N-ACE, 37 °C.
Data set [8] has as its target T2, N-domain of bovine ACE (N-ACE) (Bos taurus, UniProt P12820).
T2 sequence (P12820 40-624 limits assumed): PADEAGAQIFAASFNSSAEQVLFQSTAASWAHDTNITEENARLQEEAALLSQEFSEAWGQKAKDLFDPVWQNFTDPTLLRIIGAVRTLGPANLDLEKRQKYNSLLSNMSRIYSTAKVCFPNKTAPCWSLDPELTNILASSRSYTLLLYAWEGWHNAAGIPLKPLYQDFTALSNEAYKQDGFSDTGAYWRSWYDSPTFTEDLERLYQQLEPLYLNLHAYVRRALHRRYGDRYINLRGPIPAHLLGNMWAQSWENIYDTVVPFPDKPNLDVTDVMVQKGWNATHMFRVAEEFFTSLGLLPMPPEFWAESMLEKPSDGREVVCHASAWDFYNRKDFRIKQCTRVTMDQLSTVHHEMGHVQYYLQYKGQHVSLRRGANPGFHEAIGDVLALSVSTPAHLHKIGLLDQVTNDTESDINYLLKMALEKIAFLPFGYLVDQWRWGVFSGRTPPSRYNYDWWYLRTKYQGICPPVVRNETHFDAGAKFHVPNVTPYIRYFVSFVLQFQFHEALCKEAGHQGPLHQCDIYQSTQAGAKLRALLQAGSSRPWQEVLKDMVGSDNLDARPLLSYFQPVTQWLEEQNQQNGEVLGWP
The data set can be described thus: Hydrolysis of Aβ metal-binding-domain peptides by N-ACE, products identified/quantified by MALDI-TOF MS.

For the molecule Pyr-HWSYGLRPG-[Amide], the fragment found result in the data set with N-domain of ACE [1] was “N-terminal tripeptide”.

Turning to “Pyr-HWSYGLRPG-[Amide] [luliberin, regulatory peptide, natural substrate of ACE]”, the “Endoproteolytic cleavage by the N-domain of ACE” value in the data set on N-domain of ACE [2] is given as “cleaves an N-terminal tripeptide”.

Take `NCCCC[C@H](N[C@@H](CCc1ccccc1)C(=O)O)C(=O)N1CCC[C@H]1C(=O)O` [lisinopril]: the “Effect of lisinopril on C-ACE hydrolysis of Aβ(1-16)” value in data set [3] was “fully prevented the formation of these products of hydrolysis”.

In the case of “[CH3CO]-Asp-Ala-Glu-Phe-Arg^5-His-Asp- Ser-Gly-Tyr^10-Glu-Val-His-His-Gln^15-Lys-[NH2]”, in the data set with N-domain of ACE (N-ACE) [4], the not cleaved result was “complete inhibition of hydrolysis”.

On to Ac-DAEFGHDSGFEVRHQK-NH2, for which the figures for the not cleaved entry (with N-domain of ACE (N-ACE) [5]; in data set [6]; in the data set on C-domain of ACE (C-ACE)) were “complete inhibition of hydrolysis”, “absence of endopeptidase activity toward the G5-H6 peptide bond” and “complete inhibition of hydrolysis”, respectively. Moreover, the cleaved bond entry in data set [6] is given as “Arg13-His14, 10 min”.

“Ac-DAEFGHDSGFEVRHQK-NH2 [[CH3CO]-Asp-Ala-Glu-Phe-Gly^5-His-Asp- Ser-Gly- Phe^10-Glu-Val-Arg-His-Gln^15-Lys-[NH2]]”: in [7], the “Peptide bond(s) hydrolysed by C-ACE” value is “Arg13-His14, His14-Gln15, and Gln15- Lys16”. Also, in data set [8] (bicarbonate buffer pH 7.8, 37 °C, incubation 40 min (Aβ(1-16)), 130 min (amidated Aβ peptides), 60 min (ratAβ peptide)), the “Peptide bond hydrolysed by N-ACE” value is listed as “Arg13-His14”. The “Bond cleaved, N-ACE (backbone positions)” value in data set [8] (same digestion as products observed, N-ACE, 37 °C) is given as 13–14.
